How the values were obtained:
[1] = tested on: M2 cells; assay: Troglitazone-induced adipogenesis, oil Red O staining and adipocyte count; format: cell-based, mouse; settings: troglitazone 10 μM, oxysterols 10 μM, 8-10 days
Method: (§1) Von Kossa and oil red O staining—Matrix mineralization in cell monolayers was detected by silver nitrate staining as previously described. Oil red O staining for detection of adipocytes was performed as previously described.
Test 1: M2 cells at 90% confluence were treated with vehicle (C), PPAR-γ activator, troglitazone 10 uM (Tro), alone or in combination with 10 μM oxysterols 20S-, 22R-, or 25S-hydroxycholesterol. After 8 days, adipocytes were identified by oil Red 0 staining and quantified by counting under a phase contrast microscope. FIG. 6A is a bar graph depicting the effect of oxysterols on reducing adipogenesis of MSC.
Test 2: (A) M2 cells at confluence were treated in RPMI containing 10% FBS with control vehicle or 10 μM troglitazone (Tro) in the absence or presence of 10 μM 20S or 22S oxysterols. After 10 days, adipocytes were visualized by oil Red O staining and quantified by light microscopy, shown in (B). […] (C) M2 cells were treated at confluence with 10 μM Tro, alone or in combination with 10 μM 20S oxysterol. After 10 days, total RNA was isolated and analyzed for lipoprotein lipase (LPL), adipocyte P2 gene (aP2) or 18S rRNA expression by Northern blotting as described (Ref). Data from densitometric analysis of the Northern blot is shown in (D) as the average of duplicate samples, normalized to 18S rRNA.

[2] = tested on: M2-10B4 marrow stromal cells; assay: Colorimetric alkaline phosphatase (ALP) activity assay on whole cell extracts; settings: for alkaline phosphatase activity (induction): M2 cells in osteogenic medium, oxysterols 0.5-10 μM, 3-4 days; for alkaline phosphatase activity: M2 cells, ligands used at 10 μM, control 18±2, ±SD
Method: Alkaline phosphatase activity assay: Colorimetric alkaline phosphatase (ALP) activity assay on whole cell extracts was performed as previously described.
Test 1: M2 cells at confluence were treated with control vehicle (C), or 10 µM oxysterols, in an osteogenic medium consisting of RPMI 1640 to which 10% fetal bovine serum (FBS), 50 µg/ml ascorbate and 3 mM beta-glycerophosphate (□GP) were added. After 3 days of incubation, alkaline phosphatase (ALP) activity was determined in cell homogenates by a colorimetric assay.
M2 cells at confluence were treated in osteogenic medium with control vehicle (C) or a combination of 22R and 20S oxysterols, at the indicated concentrations. ALP activity was measured after 3 days as described above.
Test 2: M2 cells were grown in RPMI medium containing 10% fetal bovine serum (FBS). At confluence, the cells were treated in RPMI containing 5% FBS plus ascorbate at 50 μg/ml and β-glycerophosphate at 3 mM to induce osteoblastic differentiation. Adipogenic differentiation was induced by treating the cells in growth medium plus 10˜M troglitazone. A vehicle (C) or oxysterol treatment was applied to cells in a variety of doses (in μM): 20S-Hydroxycholesterol, 25-Hydroxycholesterol, 22R-Hydroxycholesterol; 22S-Hydroxycholesterol; 7-ketocholesterol. Cells were always treated at 90% confluence. After 4 days, alkaline phosphatase activity was determined in whole cell lysates and normalized to protein. Alternatively, MSC cultures were prepared and treated with oxysterols as described above. Cells were treated at 90% confluence with the combination of 22R-Hydroxycholesterol and 20S-Hydroxycholesterol, each at 5 μM, for 4 to 96 hours. The oxysterols where removed and fresh media without oxysterols was added for a total duration of 96 hours. Alkaline phosphatase activity was measured in whole cell extracts and normalized to protein.
Cells were treated with the oxysterols (5 μM) for 4 days after which they were collected and analyzed by colorimetric assay for alkaline phosphatase activity. Results from a representative experiment are shown as the average of quadruplicate determination ±SD.

[3] = tested on: M2-10B4 marrow stromal cells; assay: Matrix mineralization (45Ca incorporation assay, von Kossa staining); format: cell-based, mouse; settings: M2 cells in osteogenic medium, 10-14 days
Method: as §1
^45Ca incorporation assay—Matrix mineralization in cell monolayers was quantified using the ^45Ca incorporation assay as previously described.
After 14 days, mineralization was identified by a von Kossa staining, which appears black. FIG. 3C is a depiction of von Kossa staining of M2 cells exposed to various conditions. […]

[4] = tested on: osteocalcin mRNA; assay: Northern blotting for osteocalcin mRNA in M2 cells; format: cell-based, mouse; settings: M2 cells in osteogenic medium, up to 14 days
Method: RNA isolation and Northern blot analysis—Following treatment of cells under appropriate experimental conditions, total RNA was isolated using the RNA isolation kit from Stratagene (La Jolla, Calif., U.S.A.). Total RNA ([…]) was run on a 1% agarose/formaldehyde gel and transferred to Duralon-UV membranes (Strategene, Calif., U.S.A.) and cross-linked with UV light. The membranes were hybridized overnight at 60 degree C. with ^32P-labeled mouse osteocalcin cDNA probe, mouse lipoprotein lipase (LPL), mouse adipocyte protein 2 (aP2) PCR-generated probes, human 28S or 18S rRNA probes obtained from Geneka Biotechnology (Montreal, Quebec, Canada) and Maxim Biotech (San Francisco, Calif., U.S.A.), respectively. The PCR products were generated using primer sets synthesized by Invitrogen (Carlsbad, Calif., U.S.A.) with the following specifications: mouse aP2 gene (accession no. M13261); sense (75-95) 5′-[…]-3′, antisense (362-383) 5′-[…]-3′, generating a PCR product of 309 base pairs. Mouse LPL (accession no. XM—134193); sense (1038-1058) 5′-[…]-3′, antisense (1816-1836) 5′-[…]-3′, generating a PCR product of 799 base pairs. […] Following hybridization, the blots were washed twice at room temperature with 2×SSC+0.1% SDS, and then twice at 60 degree C. with 0.5×SSC+0.1% SDS, and exposed to X-ray film. The extent of gene induction was determined by densitometry.
After 4 and 8 days, total RNA from duplicate samples was isolated and analyzed for osteocalcin (Osc) and 28S rRNA expression by Northern blotting as described. FIG. 3E is a radiogram of Northern blotting for osteocalcin mRNA in M2 cells exposed to a control or combination of oxysterols for 4 or 8 days. FIG. 3F is a bar graph depicting the relative demsometric units of osteocalcin mRNA in M2 cells exposed to a control or combination of oxysterols for 4 or 8 days. Data from densitometric analysis of the Northern blot is shown in (F) as the average of duplicate samples, normalized to 28S rRNA.
RNA Isolation and Northern Blot Analysis—Total RNA was isolated using the RNA isolation kit from Stratagene (La Jolla, Calif., USA). Northern blotting and analysis of osteocalcin mRNA and 18S rRNA expression was performed as previously described (23).

[5] = tested on: lipoprotein lipase (LPL) and adipocyte P2 gene (aP2); assay: Northern blotting for adipogenic genes in M2 cells; format: cell-based, mouse; settings: 10 μM Tro with 10 μM 20S, 10 days
Method: RNA isolation and Northern blot analysis—Following treatment of cells under appropriate experimental conditions, total RNA was isolated using the RNA isolation kit from Stratagene (La Jolla, Calif., U.S.A.). Total RNA ([…]) was run on a 1% agarose/formaldehyde gel and transferred to Duralon-UV membranes (Strategene, Calif., U.S.A.) and cross-linked with UV light. The membranes were hybridized overnight at 60 degree C. with ^32P-labeled mouse osteocalcin cDNA probe, mouse lipoprotein lipase (LPL), mouse adipocyte protein 2 (aP2) PCR-generated probes, human 28S or 18S rRNA probes obtained from Geneka Biotechnology (Montreal, Quebec, Canada) and Maxim Biotech (San Francisco, Calif., U.S.A.), respectively. […] The extent of gene induction was determined by densitometry.
Test 2: (A) M2 cells at confluence were treated in RPMI containing 10% FBS with control vehicle or 10 μM troglitazone (Tro) in the absence or presence of 10 μM 20S or 22S oxysterols. After 10 days, adipocytes were visualized by oil Red O staining and quantified by light microscopy, shown in (B). […] After 10 days, total RNA was isolated and analyzed for lipoprotein lipase (LPL), adipocyte P2 gene (aP2) or 18S rRNA expression by Northern blotting as described (Ref). […]

[6] = tested on: ERK1 and ERK2; assay: Western blot for native and phosphorylated ERK in M2 cells; format: cell-based, mouse; settings: 5 μM, 1, 4 or 8 hours
Method: Western blot analysis—After treatments, cells were lysed in lysis buffer, protein concentrations determined using the Bio-Rad protein assay (Hercules, Calif. U.S.A.), and SDS-PAGE performed as previously described. Probing for native and phosphorylated ERKs was performed as previously reported.
(A) M2 cells at confluence were pretreated for four hours with RPMI containing 1% FBS, followed by treatment with control vehicle or 5 μM 20S oxysterol for 1, 4, or 8 hours. Next total cell extracts were prepared and analyzed for levels of native or phosphorylated ERK (pERK) using specific antibodies as previously described. Data from a representative of four experiments are shown, each treatment shown in duplicate samples. (B) M2 cells at confluence were pretreated for 2 hours with control vehicle (C) or 20 μM PD98059 (PD) in osteogenic medium as previously described. Next, a combination of 22R and 20S oxysterols (RS, 5 μM each) were added to appropriate wells as indicated. After 10 days of incubation, matrix mineralization was quantified by the ^45Ca incorporation assay as previously described. […] (C) M2 cells at confluence were pretreated for 2 hours with 20 µM PD98059 (PD) in RPMI containing 5% FBS. […] After 10 days, adipocytes were visualized by oil Red O staining and quantified by light microscopy as previously described. […]

SMILES | inhibition of adipogenesis [1] | alkaline phosphatase activity (induction) [2] | mineralization [3] | osteocalcin gene expression [4] | expression of the adipogenic genes LPL and aP2 [5] | activation of ERK1 and ERK2 [6] | alkaline phosphatase activity [2]
CC(C)CCC[C@@H](C)[C@H]1CC[C@H]2[C@@H]3C(=O)C=C4C[C@@H](O)CC[C@]4(C)[C@H]3CC[C@]12C [7-ketocholesterol, reference compound] | unable to inhibit adipogenesis | did not induce alkaline phosphatase activity | – | – | – | – | –
CC(C)CCC[C@](C)(O)[C@H]1CC[C@H]2[C@@H]3CC=C4C[C@@H](O)CC[C@]4(C)[C@H]3CC[C@@]21C [20S-hydroxycholesterol] | inhibited adipogenesis | induced alkaline phosphatase activity | unable to induce | unable to induce | inhibition of the expression | sustained activation | 140±12 activity units/mg protein
CC(C)CC[C@@H](O)[C@@H](C)[C@H]1CC[C@H]2[C@@H]3CC=C4C[C@@H](O)CC[C@]4(C)[C@H]3CC[C@]12C [22R-hydroxycholesterol] | inhibited adipogenesis | induced alkaline phosphatase activity | unable to induce | unable to induce | – | – | 45±5 activity units/mg protein
CC(C)CC[C@H](O)[C@@H](C)[C@H]1CC[C@H]2[C@@H]3CC=C4C[C@@H](O)CC[C@]4(C)[C@H]3CC[C@]12C [22S-hydroxycholesterol] | inhibited adipogenesis | induced alkaline phosphatase activity | unable to induce | unable to induce | – | – | –
